Pest or weed control data for 17 compounds are collected here from US9096560B2, “5-heterocyclylalkyl-3-hydroxy-2-phenylcyclopent-2-enones as herbicides” (Syngenta Limited, priority 2008, dated 2015).

Common to all, as to assay type: in vivo
In experiment [1] the test system is Lolium perenne (LOLPE). Kind of experiment: Example B pre-emergence herbicidal test, LOLPE. The settings on record: Lolium perenne, 312 h, rate 250 g/ha, evaluated after 13 days, 100=total damage to plant, 0=no damage to plant. The essentials: (§1)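 After sowing in standard soil, pots spent a day in the glasshouse (24/16° C, 14 h photoperiod, 65% humidity) before spraying with compound in acetone/water 50:50 with 0.5% Tween 20. Watering followed twice a day, and plants were evaluated 13 days on, with 100 meaning complete damage.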

Experiment [2] deals with Alopecurus myosuroides (ALOMY). Put plainly: Example B pre-emergence herbicidal test, ALOMY. Particulars: Alopecurus myosuroides, 312 h, rate 250 g/ha, evaluated after 13 days, 100=total damage to plant, 0=no damage to plant. The essentials:
as §1

Experiment [3] deals with Echinochloa crus-galli (ECHCG). Kind of experiment: Example B pre-emergence herbicidal test, ECHCG. Particulars: Echinochloa crus-galli, 312 h, rate 250 g/ha, evaluated after 13 days, 100=total damage to plant, 0=no damage to plant. An outline of the steps: as §1
Experiment [4] relates to Avena fatua (AVEFA). Kind of experiment: Example B pre-emergence herbicidal test, AVEFA. Particulars: Avena fatua, 312 h, rate 250 g/ha, evaluated after 13 days, 100=total damage to plant, 0=no damage to plant. The essentials: as §1
For experiment [5], the system named is Lolium perenne (LOLPE). Kind of experiment: Example B post-emergence herbicidal test, LOLPE. The settings on record: Lolium perenne, 312 h, rate 250 g/ha, evaluated after 13 days, scale 0-100, read-out: Post-emergence activity LOLPE (100=total damage to plant; 0=no damage to plant). The essentials: (§2)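 Plants grown from seed in standard soil for 8 days in a glasshouse (24/16 °C day/night, 14 h light, 65% humidity), then sprayed with an aqueous solution from the active ingredient formulated in acetone/water (50:50) with 0.5% Tween 20. Damage scored after 13 days, 0 (none) to 100 (total).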

Experiment [6] concerns Alopecurus myosuroides (ALOMY). Kind of experiment: Example B post-emergence herbicidal test, ALOMY. Particulars: Alopecurus myosuroides, 312 h, rate 250 g/ha, evaluated after 13 days, scale 0-100, read-out: Post-emergence activity ALOMY (100=total damage to plant; 0=no damage to plant). The essentials:
as §2

Experiment [7] concerns Echinochloa crus-galli (ECHCG). Kind of experiment: Example B post-emergence herbicidal test, ECHCG. The settings on record: Echinochloa crus-galli, 312 h, rate 250 g/ha, evaluated after 13 days, scale 0-100, read-out: Post-emergence activity ECHCG (100=total damage to plant; 0=no damage to plant). An outline of the steps:
as §2

Experiment [8] has as its system Avena fatua (AVEFA). Kind of experiment: Example B post-emergence herbicidal test, AVEFA. The settings on record: Avena fatua, 312 h, rate 250 g/ha, evaluated after 13 days, scale 0-100, read-out: Post-emergence activity AVEFA (100=total damage to plant; 0=no damage to plant). The essentials:
as §2

On to `Cc1cc(-c2ccccc2F)cc(C)c1C1C(=O)CC(CC2CCOC2)C1=O` (stereo not shown) [Compound T140], for which the pest or weed control at 250 g/ha in experiment [1] was 70%; in experiment [2], 60%; in experiment [3], 90%; in experiment [4], 50%; in experiment [5] it was 90%; in experiment [6] it was 90%. Moreover, the results for the pest or weed control at 250 g/ha in experiment [7] and in experiment [8] were 90% and 60%, respectively.

On to `Cc1cc(C)c(C2=C(OC(=O)C3CC3)CC(CC3CCN(C(=O)C4CC4)C3)C2=O)c(C)c1` (stereo not shown) [Compound P57], for which the pest or weed control at 250 g/ha was 60% in experiment [1]; 50% in experiment [2]; 30% in experiment [3]; 70% in experiment [4]; 60% in experiment [5]; 80% in experiment [6]. Further, the pest or weed control at 250 g/ha in experiment [7] was found to be 70%; in experiment [8], 80%.

Take `Cc1cc(C)c(C2=C(OC(=O)C(C)(C)C)CC(CC3COCCO3)C2=O)c(C)c1` (stereo not shown) [Compound P49]: the pest or weed control at 250 g/ha in experiment [1] turned out to be 100%; in experiment [2], 80%; in experiment [3], 100%; in experiment [4], 60%; in experiment [5], 100%; in experiment [6] it was 80%. Besides, the results for the pest or weed control at 250 g/ha in experiment [7] and in experiment [8] were 100% and 90%, respectively.

With `Cc1cc(C)c(C2C(=O)CC(CC3CCN(C(=O)C(C)(C)CCl)C3)C2=O)c(C)c1` (stereo not shown) [Compound T145], the pest or weed control at 250 g/ha came to 50% in experiment [1]; 60% in experiment [2]; 20% in experiment [3]; 30% in experiment [4]; 40% in experiment [5]; 60% in experiment [6]. For the same compound, the figures for the pest or weed control at 250 g/ha in experiment [7] and in experiment [8] were 30% and 50%, respectively.

For the compound `Cc1cc(C)c(C2C(=O)CC(CC3CCN(C(=O)c4ccc(-c5ccccc5)cc4)CC3)C2=O)c(C)c1` (stereo not shown) [Compound T77], the pest or weed control at 250 g/ha in experiment [1] was 0%; in experiment [2], 0%; in experiment [3], 0%; in experiment [4] it was 0%; in experiment [5], 40%; in experiment [6], 30%. Moreover, the pest or weed control at 250 g/ha in experiment [7] came out at 20%; in experiment [8], 40%.

Take `Cc1cc(C)c(C2C(=O)CC(CC3CCN(C(=O)c4ccc(Cl)cc4)CC3)C2=O)c(C)c1` (stereo not shown) [Compound T76]: the pest or weed control at 250 g/ha in experiment [1] turned out to be 60%; in experiment [2] it was 30%; in experiment [3], 60%; in experiment [4] it was 20%; in experiment [5], 40%; in experiment [6] it was 90%. Besides, the pest or weed control at 250 g/ha in experiment [7] came to 90%; in experiment [8], 100%.

Consider `CCCCOC(=O)N1CCC(CC2CC(=O)C(c3c(C)cc(C)cc3C)C2=O)CC1` (stereo not shown) [Compound T69], for which the pest or weed control at 250 g/ha in experiment [1] came out at 10%; in experiment [2], 0%; in experiment [3] it was 20%; in experiment [4], 10%; in experiment [5], 30%; in experiment [6], 30%. Also, the pest or weed control at 250 g/ha in experiment [7] is 20%; in experiment [8] it was 30%.

Consider `Cc1cc(C)c(C2C(=O)C/C(=C\C3CCCCN3S(C)(=O)=O)C2=O)c(C)c1` (stereo not shown) [Compound T47], for which the pest or weed control at 250 g/ha in experiment [1] was found to be 60%; in experiment [2] it was 20%; in experiment [3] it was 40%; in experiment [4], 50%; in experiment [5], 30%; in experiment [6] it was 30%. Besides, the pest or weed control at 250 g/ha turned out to be 60% in experiment [7] and 50% in experiment [8].

Turning to `Cc1cc(C)c(C2C(=O)CC(CC3CCN(C(=O)c4c(C)noc4C)CC3)C2=O)c(C)c1` (stereo not shown) [Compound T118], the pest or weed control at 250 g/ha in experiment [1] was 40%; in experiment [2], 40%; in experiment [3] it was 30%; in experiment [4], 20%; in experiment [5], 30%; in experiment [6], 60%. In addition, the pest or weed control at 250 g/ha was found to be 40% in experiment [7] and 80% in experiment [8].

As for `Cc1cc(C)c(C2C(=O)CC(CCC3CCOCC3)C2=O)c(C)c1` (stereo not shown) [Compound T21], the pest or weed control at 250 g/ha turned out to be 100% in experiment [1]; 100% in experiment [2]; 90% in experiment [3]; 70% in experiment [4]; 90% in experiment [5]; 90% in experiment [6]. Moreover, the pest or weed control at 250 g/ha in experiment [7] was found to be 80%; in experiment [8] it was 90%.

For the compound `Cc1cc(C)c(C2=C(OC(=O)C(C)(C)C)C/C(=C\C3CCSCC3)C2=O)c(C)c1` [Compound P9], the pest or weed control at 250 g/ha in experiment [1] was 40%; in experiment [2], 30%; in experiment [3] it was 20%; in experiment [4] it was 0%; in experiment [5], 40%; in experiment [6], 30%. The pest or weed control at 250 g/ha amounted to 50% in experiment [7] and 10% in experiment [8].

For `Cc1cc(C)c(C2=C(OC(=O)c3ccc(Cl)nc3)CC(CC3CCN(C(=O)c4ccc(Cl)nc4)C3)C2=O)c(C)c1` (stereo not shown) [Compound P64], the pest or weed control at 250 g/ha in experiment [1] came to 80%; in experiment [2], 70%; in experiment [3], 80%; in experiment [4], 70%; in experiment [5], 90%; in experiment [6], 100%. Also, the pest or weed control at 250 g/ha in experiment [7] was determined as 90%; in experiment [8] it was 100%.

As to `Cc1cc(C)c(C2=C(OC(=O)OC(C)C)CC(CC3CCOC3)C2=O)c(C)c1` (stereo not shown) [Compound P31], the pest or weed control at 250 g/ha was determined as 100% in experiment [1]; 100% in experiment [2]; 100% in experiment [3]; 90% in experiment [4]; 100% in experiment [5]; 90% in experiment [6]. In addition, the pest or weed control at 250 g/ha was determined as 100% in experiment [7] and 90% in experiment [8].

Take `Cc1cc(C)c(C2C(=O)CC(C)(CC3CCOC3)C2=O)c(C)c1` (stereo not shown) [Compound T30]: the pest or weed control at 250 g/ha in experiment [1] came to 90%; in experiment [2], 60%; in experiment [3], 80%; in experiment [4], 30%; in experiment [5] it was 80%; in experiment [6], 80%. Further, the pest or weed control at 250 g/ha in experiment [7] was 80%; in experiment [8], 70%.

As to `Cc1cc(C)c(C2=C(O)CC(CC3CCOCC3)C2=O)c(C)c1` (stereo not shown) [Compound P67], the pest or weed control at 250 g/ha in experiment [1] worked out at 100%; in experiment [2], 80%; in experiment [3], 90%; in experiment [4] it was 90%; in experiment [5], 100%; in experiment [6], 100%. For the same compound, the pest or weed control at 250 g/ha in experiment [7] and in experiment [8] was 100% in each case.

For the compound `Cc1cc(C)c(C2C(=O)CC(CC3CCN(C(=O)OCC(Cl)(Cl)Cl)CC3)C2=O)c(C)c1` (stereo not shown) [Compound T86], the pest or weed control at 250 g/ha in experiment [1] worked out at 100%; in experiment [2], 60%; in experiment [3], 50%; in experiment [4], 30%; in experiment [5], 70%; in experiment [6] it was 40%. Further, the pest or weed control at 250 g/ha in experiment [7] and in experiment [8] was 80% each time.

Take `C=CCOC(=O)N1CCC(CC2CC(=O)C(c3c(C)cc(C)cc3C)C2=O)CC1` (stereo not shown) [Compound T101]: the pest or weed control at 250 g/ha in experiment [1] amounted to 50%; in experiment [2], 20%; in experiment [3], 50%; in experiment [4], 30%; in experiment [5], 40%; in experiment [6], 40%. Besides, the pest or weed control at 250 g/ha in experiment [7] came to 20%; in experiment [8], 40%.
